Experimental data published in patent US7307166B1, “Oxpurine nucleosides and their congeners, and acyl, derivatives thereof, for improvement of hematopoiesis” (Wellstat Therapeutics Corporation, priority 1987, dated 2007).

What was measured:
[1] = test system: rabbits treated with cyclophosphamide; conditions: rabbit, in vivo; cited from earlier work
[2] = test system: mouse bone marrow cells in culture; conditions: under stimulatory influence of serum from endotoxin-treated mice; cited from earlier work
Balb/C female mice [3] = test: Hematopoietic recovery after cyclophosphamide in mice (spleen weight, blood cell counts); assay type: in vivo, mouse
Balb/C female mice [4] = test: as above; assay type: in vivo, mouse; conditions: for Neutrophils / peripheral total white blood cells: Ex 37: day 7 after CP, 5 μmoles/mouse/day i.p. 6 days
Description: Twenty-four hours later and each day thereafter for a total of 6 days, mice were given a 0.4 ml i.p. injection of either physiological saline (controls), guanine (5 μmoles/mouse/day), or guanosine (5 μmoles/mouse/day). On day 7 all 10 mice in each of the three groups were bled, and then sacrificed by cervical dislocation. Spleens were removed and weighed, and complete blood cell counts performed.
Twenty-four hours later and each day thereafter for a total of 6 days, mice were given a 0.4 ml i.p injection of either physiological saline (controls), Tween 80 (0.2%), guanosine (5 μmoles/mouse/day in 0.2% Tween 80), or 2.5 μmoles per mouse per day of one of the following acylated derivatives of guanosine in 0.2% Tween 80: triacetylguanosine, octanoylguanosine, lauroylguanosine, or palmitoylguanosine. On day 7 following CP administration all 10 animals from each of the 7 groups were bled, and then sacrificed by cervical dislocation. Spleens were removed and weighed, and complete blood counts performed.
Twenty-four hours later treatment was begun. Mice were given a 0.4 ml i.p. injection of either physiological saline (controls), Tween 80 (0.2%), or palmitoylguanosine (5 μmoles/mouse/day in 0.2% Tween 80). The timing of the treatments was varied within the groups. The control group was given saline on days 1-6. The mice receiving Tween 80 were treated either on days 1-4, 4-6 or 1-6. Palmitoylguanosine-treated mice were treated either on days 1-2, 1-4, 3-5, 4-6 or 1-6. If a group of mice received no Tween 80 or palmitoylguanosine on a given day, saline was administered by i.p. injection. Thus, there were 9 groups of 9 animals in all. On day 7 following CP administration all of the animals were bled and then sacrificed by cervical dislocation. Spleens were removed and weighed, and complete blood cell counts performed.
Twenty-four hours later and each day thereafter for a total of 6 days, mice were given a 0.4 ml i.p. injection of either physiological saline (controls), Tween 80 (0.5%), or one of three different doses of octanoylguanosine (0.5, 2.5, or 5 μmoles/mouse/day in 0.5% Tween 80). On day 7 following CP administration all 9 animals from each of the […] were bled and then sacrificed by cervical dislocation. Spleens were removed and weighed, and complete blood cell counts performed.
Twenty-four hours later and each day thereafter for a total of 6 days, mice were given a 0.4 ml i.p. injection of either physiological saline (controls), Tween 80 (0.5%), or octanoylguanosine (5.0 μmoles/mouse/day in 0.5% Tween 80). On day 7 following CP administration all 10 animals from each of the 3 groups were bled and then sacrificed by cervical dislocation. Spleens were removed, weighed, and fixed in 10% formalin for later histological examination. Complete blood cell counts were performed on the collected blood.
Twenty-four hours later and each day thereafter for a total of 6 days, mice were given a 0.4 ml i.p. injection of either physiological saline (controls), benzoylguanosine (2.5 μmoles/mouse/day in 0.2% Tween 80), or palmitoylguanosine (2.5 μmoles/mouse/day in 0.2% Tween 80). On days 7 and 10 following CP administration 8 animals from each of the 3 groups were bled and then were sacrificed by cervical dislocation. Spleens were removed and weighed, and complete blood cell counts performed.
Twenty four hours later and each day thereafter for a total of 4 or 6 days, mice were given a 0.4 ml i.p. injection of either physiological saline (controls), palmitoyldeoxyinosine (2.5 μmoles/mouse), or palmitoyl-xanthosine (2.5 μmoles/mouse). On days 5 and 7 following CP administration 6 of the 12 animals in each of the 3 groups were bled and then sacrificed by cervical dislocation. Spleens were removed and weighed, and complete blood cell counts performed.

[5] = test system: human myeloid leukemia cell line (HL-60); conditions: incubation of HL-60 cells; cited from earlier work
[6] = test system: bone marrow cells in culture; conditions: sub-optimal amounts of colony stimulating factors; cited from earlier work
[7] = Ex 37: day 7 after CP 275 mg/kg i.p., 5 μmoles/mouse/day i.p. 6 days, vs saline
[8] = Ex 38: day 7 after CP, guanosine 5, acyl derivatives 2.5 μmoles/mouse/day in 0.2% Tween 80 i.p. 6 days, Tween 80 0.2%

Q: For polyguanosine monophosphate, which leukocyte formation [1] is on record?
A: failed to stimulate

Q: Which “number of colonies formed” value [2] does the source give for Nc1nc2c(ncn2[C@@H]2O[C@@H]3COP(=O)(O)O[C@H]3[C@H]2O)c(=O)[nH]1 [cGMP, 3′,5′-cyclic guanosine monophosphate] here?
A: increase

Q: For polyadenosine monophosphate, which leukocyte formation [1] is on record?
A: failed to stimulate

Q: With Nc1nc2c(ncn2[C@@H]2O[C@H](CO)[C@@H](O)[C@H]2O)c(=O)[nH]1 [guanosine] as the compound, how does the spleen weight (Balb/C female mice [3]; [7]) read?
A: significantly heavier spleens

Q: What about the Neutrophils (Balb/C female mice [4]; vs saline) of the same compound?
A: significantly more

Q: And the “peripheral total white blood cells” value (Balb/C female mice [4]; vs saline)?
A: significantly more

Q: And the spleen weight (Balb/C female mice [4]; [8])?
A: No significant difference

Q: What about the “induced maturation into functional neutrophils” value [5] of the same compound?
A: prevented

Q: What does the source list for Nc1nc2nc[nH]c2c(=O)[nH]1 [guanine]?
A: spleen weight (Balb/C female mice [3]; [7]): significantly heavier spleens; Neutrophils (Balb/C female mice [4]; vs saline): significantly more; peripheral total white blood cells (Balb/C female mice [4]; vs saline): significantly more; induced maturation into functional neutrophils [5]: prevented

Q: With “polyoxyethylene sorbitan mono-oleate [Tween 80]” as the compound, how does the spleen weight (Balb/C female mice [3]; Ex 46: day 7 after CP, Tween 80 0.5% alone vs saline) read?
A: modest increase

Q: And the neutrophil counts (Balb/C female mice [3]; Ex 58: day 7 after CP, 1.0% Tween alone i.p. 6 days, vs saline)?
A: significantly different from controls

Q: What about the “concentration of maximum activity” value [6] of the same compound?
A: 10 ng/mL

Q: What about the spleen weight (Balb/C female mice [4]; [8]) of the same compound?
A: No significant difference

Q: What about the lymphocyte counts (Balb/C female mice [4]; Ex 41: day 7 after CP, Tween 80 0.2% for any period) of the same compound?
A: not affected

Q: What about the spleen weight (Balb/C female mice [4]; Ex 41: day 7 after CP, Tween 80 0.2% on days 4-6 or 1-6 (not days 1-4), vs saline) of the same compound?
A: elevated

Q: And the mean spleen weight (Balb/C female mice [4]; Ex 45: day 7 after CP, Tween 80 0.5%)?
A: some increase

Q: With Nc1nc2c(ncn2[C@@H]2O[C@H](COP(=O)(O)O)[C@@H](O)[C@H]2O)c(=O)[nH]1 [5′-guanosine monophosphate] as the compound, how does the “number of colonies formed” value [2] read?
A: inactive
